In general, IC50 refers to the concentration at which inhibition is half-maximal. Low readings indicate inhibition by little substance, high ones a need for much substance. The T/C is the result in the treated group divided by that in the control group, in per cent.

Here are results for 14 compounds from ChEMBL document CHEMBL1130845, “Modulation of multidrug resistance by taxuspine C and other taxoids from Japanese yew” (Bioorg Med Chem Lett, 1998).

Values after ≈ are worked out from the molar mass of the structure shown. Bounds are passed on as bounds.

In one assay the test system is L1210. Nature of the assay: Cytotoxic activity was evaluated against murine Leukemia L1210 cells. The class given is functional, cell-based. As to conditions: Mus musculus.
Assay [1] can be described thus: Cytotoxic activity was evaluated against Epidermoid Carcinoma KB cells. As to conditions: Homo sapiens. The class given is functional, cell-based.
Assay [2] deals with Mus musculus. Nature of the assay: Compound was evaluated for antitumor activity in P388/VCR-bearing mice at 200 mg/Kg as in the presence of vincristine at 0.1 mg/kg. The class given is functional.
For assay [3], the system named is Mus musculus. The assay is described as follows: Compound was evaluated for antitumor activity in P388/VCR-bearing mice at 200 mg/kg in the presence of vincristine at 0.1 mg/kg. The class given is functional.
Assay [4] concerns Mus musculus. The assay is described as follows: Compound was evaluated for antitumor activity in P388/VCR-bearing mice at 200 mg/Kg. The class given is functional.
Assay [5] relates to Mus musculus. The assay is described as follows: Compound was evaluated for antitumor activity in P388/VCR-bearing mice at 200 mg/kg in the presence of vincristine at 0.2 mg/kg. It is filed as functional.
For assay [6], the system named is Mus musculus. Nature of the assay: Compound was evaluated for antitumor activity in P388/VCR-bearing mice at 200 mg/kg as in the presence of vincristine at the 0.1 mg/kg. It is filed as functional.
Assay [7] can be described thus: Effect on cellular accumulation of Vincristine in multidrug resistant human ovarian cancer 2780AD cells was determined at a dose 10 ug/mL. The class given is functional, A2780 ADR.
Assay [8] in a line: Effect on cellular accumulation of Vincristine in multidrug resistant human ovarian cancer 2780AD cells was determined in the presence at a dose 10 ug/mL of taxoids. It is filed as functional, A2780 ADR.
Assay [9] deals with Mus musculus. The assay is described as follows: Compound was evaluated for antitumor activity in P388/VCR-bearing mice at 0.2 mg/Kg in the presence of vincristine at 0.1 mg/kg as percent ratio of median survival time of treated mice to control mice. The class given is functional.
Assay [10] concerns Mus musculus. Nature of the assay: Compound was evaluated for antitumor activity in P388/VCR-bearing mice at 0.2 mg/Kg as percent ratio of median survival time of treated mice to control mice. It is filed as functional.
Assay [11] deals with Mus musculus. The assay is described as follows: Compound was evaluated for antitumor activity in P388/VCR-bearing mice at 0.2 mg/Kg in the presence of vincristine at 0.1 mg/kg as range. It is filed as functional.
Assay [12] deals with Mus musculus. Nature of the assay: Compound was evaluated for antitumor activity in P388/VCR-bearing mice at 0.2 mg/Kg as in the presence of vincristine at 0.1 mg/kg as the ratio of median survival time of treated mice to control mice. The class given is functional.
In assay [13] the test system is Mus musculus. Nature of the assay: Compound was evaluated for antitumor activity in P388/VCR-bearing mice at 0.2 mg/Kg as the ratio of median survival time of treated mice to control mice. It is filed as functional.
Assay [14] has as its system Mus musculus. The assay is described as follows: Compound was evaluated for antitumor activity in P388/VCR-bearing mice at 0.2 mg/Kg as range. The class given is functional.

With `CC(=O)O[C@@]12CO[C@@H]1C[C@H](O)[C@@]1(C)C(=O)[C@H](OC(=O)CC(C)O)C3=C(C)[C@@H](OC(=O)[C@H](O)[C@@H](NC(=O)c4ccccc4)c4ccccc4)C[C@@](O)([C@@H](OC(=O)c4ccccc4)[C@H]21)C3(C)C` (some centres undefined), the IC50 in the assay with L1210 came out at 0.95 µg/mL (≈ 1.06 µM); in assay [1], 0.0025 µg/mL (≈ 0.00278 µM).
On the same counts, the results for `C=C1[C@@H](O)CC[C@@]2(C)[C@@H](O)[C@H](OC(C)=O)C3=C(C)C(=O)C[C@@H]([C@@H](O)[C@H]12)C3(C)C` are greater than 10 µg/mL and greater than 10 µg/mL.
The matching figures for `C=C1[C@@H](O)C[C@H](OC(C)=O)[C@@]2(C)[C@@H](OC(C)=O)[C@H](OC(C)=O)C3=C(C)[C@@H](O)C[C@@H]([C@@H](OC(C)=O)[C@H]12)C3(C)C`: greater than 10 µg/mL and 9.2 µg/mL (≈ 17.1 µM).
The matching figures for `CCCCCC(=O)N(C)[C@@H](c1ccccc1)[C@@H](O)C(=O)O[C@H]1C[C@@]2(O)[C@@H](OC(=O)c3ccccc3)[C@@H]3[C@]4(OC(C)=O)CO[C@@H]4C[C@H](O)[C@@]3(C)C(=O)[C@H](OC(C)=O)C(=C1C)C2(C)C`: 0.48 µg/mL (≈ 0.557 µM) and 0.17 µg/mL (≈ 0.197 µM).
As for `C=C1[C@@H](OC(=O)/C=C/c2ccccc2)CC[C@@]2(C)[C@@H](OC(C)=O)[C@H](OC(C)=O)C3=C(C)[C@@H](OC(C)=O)C[C@@H]([C@@H](O)[C@H]12)C3(C)C`, the half-inhibitory concentration (IC50) was determined as 5.8 µg/mL (≈ 9.53 µM) in the assay on L1210 and 9.2 µg/mL (≈ 15.1 µM) in [1].
The matching figures for `C=C1[C@@H](OC(=O)/C=C/c2ccccc2)C[C@H](O)[C@@]2(C)[C@@H](O)[C@H](OC(C)=O)C3=C(C)C(=O)C[C@@H]([C@@H](O)[C@H]12)C3(C)C`: greater than 10 µg/mL and 8.5 µg/mL (≈ 15.8 µM).
The matching figures for `C=C1[C@@H](O)CC[C@@]2(C)[C@@H](OC(C)=O)[C@H](O)C3=C(C)C(=O)C[C@@H]([C@@H](O)[C@H]12)C3(C)C`: greater than 10 µg/mL and greater than 10 µg/mL.
In the case of `C=C1C2[C@H](OC(C)=O)[C@@H]3CC(=O)[C@@H](C)C([C@@H](OC(C)=O)[C@H](OC(C)=O)[C@]2(C)CC[C@@H]1OC(=O)/C=C/c1ccccc1)C3(C)C` (some centres undefined), the Range amounted to 10 days with Mus musculus [2] and 12 days in the assay with Mus musculus [5]. Further, the entries for the “Median T/C” value in the assay on Mus musculus [3] and in the assay with Mus musculus [5] were 12 days and 15.8 days, respectively. Moreover, the results for the T/C with Mus musculus [4] and with Mus musculus [6] were 138% and 105%, respectively. Moreover, the 50% inhibitory concentration (IC50) in the assay with L1210 is 5.8 µg/mL (≈ 9.53 µM); in [1], greater than 10 µg/mL.
Turning to `CC(=O)O[C@H]1C2=C(CO)[C@@H](O)CC[C@@]2(C)[C@@H](OC(C)=O)[C@H](OC(C)=O)[C@@]2(O)[C@H](C)C(=O)C[C@@H]1C2(C)C`, the IC50 in the assay with L1210 is greater than 10 µg/mL; in assay [1] it was 2.6 µg/mL (≈ 5.09 µM). Also, in assay [7], the VCR accumulation worked out at 203.
`CC(=O)O[C@H]1C(=O)[C@@]2(C)[C@H]([C@H](OC(=O)c3ccccc3)[C@]3(O)C[C@H](O)C(C)=C1C3(C)C)[C@]1(OC(C)=O)CO[C@@H]1C[C@@H]2O` [BACCATIN III] displayed a VCR accumulation in assay [8] of 84. The IC50 was greater than 10 µg/mL in the assay on L1210 and 10 µg/mL (≈ 17 µM) in assay [1].
On to `CC(=O)O[C@H]1C(=O)[C@@]2(C)[C@H]([C@H](OC(=O)c3ccccc3)[C@]3(O)C[C@H](OC(=O)[C@H](O)[C@@H](NC(=O)c4ccccc4)c4ccccc4)C(C)=C1C3(C)C)[C@]1(OC(C)=O)CO[C@@H]1C[C@@H]2O` [PACLITAXEL], for which the IC50 in the assay with L1210 came out at 0.33 µg/mL (≈ 0.386 µM).
Consider `C=C1[C@@H](OC(=O)/C=C/c2ccccc2)C[C@H](OC(C)=O)[C@]2(C)[C@@H]1C[C@@H]1C[C@H](O)C(C)=C([C@@H](OC(C)=O)[C@@H]2OC(C)=O)C1(C)C` [TAXEZOPIDINE H], for which the IC50 is 6.2 µg/mL (≈ 10.2 µM) in the assay with L1210 and greater than 10 µg/mL in [1].
The matching figures for `C=C1[C@@H](OC(=O)/C=C/c2ccccc2)CC[C@@]2(C)[C@@H](OC(C)=O)[C@H](OC(C)=O)[C@@]34[C@H](C)C(=O)C[C@@H]([C@@H](OC(C)=O)[C@@]132)C4(C)C` [TAXUSPINE C]: greater than 10 µg/mL and greater than 10 µg/mL.
For the compound `CC[C@]1(O)C[C@H]2CN(CCc3c([nH]c4ccccc34)[C@@](C(=O)OC)(c3cc4c(cc3OC)N(C=O)[C@H]3[C@@](O)(C(=O)OC)[C@H](OC(C)=O)[C@]5(CC)C=CCN6CC[C@]43[C@@H]65)C2)C1` [VINCRISTINE], the T/C is 92% in the assay on Mus musculus [9] and 110% with Mus musculus [10]. The Range in the assay on Mus musculus [11] and in the assay on Mus musculus [14] was 10 days in each case. The “Median T/C” value with Mus musculus [12] was 10.6 days; in the assay on Mus musculus [13], 12.6 days.
